Data set [1] deals with Human hepatocellular carcinoma cells (HepG2). Put plainly: CCK-8 tumor cell growth inhibition, HepG2. The class given is cell-based. As to conditions: for IC50: Homo sapiens, HepG2, 48 h co-incubation, CCK-8, read-out: IC50 against HepG2. The method, then:
(§1) Human hepatocellular carcinoma cells (HepG2) and human colon cancer cells (SW480) were cultured in a complete culture medium consisting of high-glucose DMEM supplemented with 10% (v/v) heat-inactivated fetal bovine serum, 100 U/mL of penicillin, and […] of streptomycin. All cells used in the experiments were cultured in an incubator at 37° C. with 5% CO2 saturated humidity.
(§2) All compounds were dissolved in DMSO to prepare 20 mM compound stock solutions. • 10 μL of the compound stock solution was added to 1 mL of the complete culture medium to prepare a 200 μM compound solution; • 4 μL of the compound stock solution was added to 1 mL of the complete culture medium to prepare a 80 μM compound solution; • 0.5 mL of the 80 μM compound solution was added to 0.5 mL of the complete culture medium to prepare a 40 μM compound solution; • 0.5 mL of the 40 μM compound solution was added to 0.5 mL of the complete culture medium to prepare a 20 μM compound solution; • 0.5 mL of the 20 μM compound solution was added to 0.5 mL of the complete culture medium to prepare a 10 μM compound solution; • 0.5 mL of the 10 μM compound solution was added to 0.5 mL of the complete culture medium to prepare a 5 μM compound solution;
(§3) The inhibitory effects of the compounds on tumor cell growth were evaluated using a CCK-8 assay. A cell suspension at a predetermined density (5× 10^4/mL cells/mL) was seeded into a 96-well plate. Outermost 36 wells of the 96-well plate were filled with 200 μL of PBS buffer (0.01 M, pH 7.4), while inner 60 wells thereof were used as a drug group, a blank group, and a negative control group. Each group was tested in triplicate.
(§4) Drug group: 100 μL of the cell suspension was added to each well and incubated for 24 h, and 100 μL of the 80 μM compound solution (100 μL of the 200 μM solution was added to Compound 1) was added for co-incubating for another 48 h; 20 μL of CCK-8 solution was added to each well, followed by incubation for another 2 h; and absorbance at 450 nm was measured with a microplate reader.
(§5) Blank group: 100 μL of the complete culture medium was added to each well and incubated for 24 h, and 100 μL of the complete culture medium was then added for co-incubating for another 48 h; 20 μL of CCK-8 solution was added to each well, followed by incubation for another 2 h; and absorbance at 450 nm was measured with a microplate reader.
(§6) Negative control group: 100 μL of the cell suspension was added to each well and incubated for 24 h, and 100 μL of the complete culture medium containing 0.4 μL of DMSO was then added for co-incubating for another 48 h; 20 μL of CCK-8 solution was added to each well, followed by incubation for another 2 h; and absorbance at 450 nm was measured with a microplate reader.
(§7) The cell growth inhibitory ratio (IR) was calculated according to the following formulas:
(§8) [formula] • IR: Inhibitory Ratio • ODpositive: absorbance of the drug group • ODblank: absorbance of the blank group • ODnegative: absorbance of the negative control group
(§9) Each concentration was tested in triplicate. Based on the tumor cell inhibitory ratios at different concentrations, the IC50 was calculated using GraphPad Prism 9.

For data set [2], the target named is T1, CYP161H12 (Amycolatopsis pretoriensis, UniProt A0A1H5RFX8). Put plainly: CYP161H12 catalytic activity on different substrates (cell-free CYP161H12-RHFRed/opt13 conversion, liquid chromatography). As to conditions: role: substrate; 2 mM substrate, 0.5 equiv. NADP+, 50 equiv. Na2HPO3·5H2O, 5% DMSO, pH 7.0, 23° C., 20 h; enzyme 3.68×10^−3 mM.
T1 sequence (A0A1H5RFX8 1-404): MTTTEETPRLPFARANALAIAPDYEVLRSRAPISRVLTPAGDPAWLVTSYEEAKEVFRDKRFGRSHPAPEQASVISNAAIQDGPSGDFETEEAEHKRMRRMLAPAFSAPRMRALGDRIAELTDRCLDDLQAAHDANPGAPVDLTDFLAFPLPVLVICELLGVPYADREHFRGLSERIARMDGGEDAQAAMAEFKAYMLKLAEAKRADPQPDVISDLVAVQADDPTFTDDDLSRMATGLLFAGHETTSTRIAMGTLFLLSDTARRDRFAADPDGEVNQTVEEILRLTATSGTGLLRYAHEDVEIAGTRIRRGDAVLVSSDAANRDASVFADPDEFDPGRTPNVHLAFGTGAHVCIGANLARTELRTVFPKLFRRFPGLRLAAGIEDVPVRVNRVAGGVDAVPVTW
In data set [3] the test system is human colon cancer cells (SW480). Put plainly: CCK-8 tumor cell growth inhibition, SW480. The class given is cell-based. The conditions noted are these: for IC50: Homo sapiens, SW480, 48 h co-incubation, CCK-8, read-out: IC50 against SW480; for activity against human colon cancer cells compared with the parent compound 1 (glycyrrhetinic acid): relative to parent compound 1. As for the experimental part: as §1, §2, §3, §4, §5, §6, §7, §8, §9

Data set [4] has as its target T1, CYP161H12.

Where two headings read alike, the source gives them in different places. Some results are limits rather than exact numbers.

As a reminder, the IC50 is the point on the concentration scale where inhibition reaches its midpoint. Consider `CC1(C)[C@@H](O)CC[C@]2(C)[C@H]3C(=O)C=C4[C@@H]5C[C@@](C)(C(=O)O)CC[C@]5(C)CC[C@@]4(C)[C@]3(C)CC[C@@H]12` [Compound 1, glycyrrhetinic acid], for which the IC50 in data set [1] and in data set [3] was over 100 µM each time. For the same molecule, in data set [2], the “yield of Substrate catalyzed by CYP161H12” value (from here on “yield of Substrate catalyzed”) is recorded as 100%. On to `CC1(C)[C@@H](O)CC[C@]2(C)[C@H]3C(=O)C=C4[C@@H]5C[C@@](C)(C(=O)O)CC[C@]5(C)CC[C@@]4(C)[C@]3(C)[C@@H](O)C[C@@H]12` [Compound 1a], for which the IC50 in data set [1] and in data set [3] was over 40 µM throughout.

Take `CC1(C)[C@@H](O)CC[C@]2(C)[C@H]3C(=O)C=C4[C@@H]5C[C@@](C)(C(=O)O)CC[C@]5(C)C[C@H](O)[C@@]4(C)[C@]3(C)[C@@H](O)C[C@@H]12` [Compound 1b]: the IC50 in data set [1] and in data set [3] was over 40 µM each time. Turning to `CC(=O)O[C@H]1CC[C@]2(C)[C@H]3C(=O)C=C4[C@@H]5C[C@@](C)(C(=O)O)CC[C@]5(C)CC[C@@]4(C)[C@]3(C)[C@@H](O)C[C@H]2C1(C)C` [Compound 2a], the half-inhibitory concentration (IC50) in data set [1] and in data set [3] was over 40 µM throughout. In the case of `CC(=O)O[C@H]1CC[C@]2(C)[C@H]3C(=O)C=C4[C@@H]5C[C@@](C)(C(=O)O)CC[C@]5(C)C[C@H](O)[C@@]4(C)[C@]3(C)[C@@H](O)C[C@H]2C1(C)C` [Compound 2b], the IC50 in data set [1] and in data set [3] was over 40 µM each time.

On to `CCC(=O)O[C@H]1CC[C@]2(C)[C@H]3C(=O)C=C4[C@@H]5C[C@@](C)(C(=O)O)CC[C@]5(C)CC[C@@]4(C)[C@]3(C)[C@@H](O)C[C@H]2C1(C)C` [Compound 3a], for which the IC50 in data set [1] and in data set [3] was over 40 µM in each case. In the case of `CCCC(=O)O[C@H]1CC[C@]2(C)[C@H]3C(=O)C=C4[C@@H]5C[C@@](C)(C(=O)O)CC[C@]5(C)CC[C@@]4(C)[C@]3(C)[C@@H](O)C[C@H]2C1(C)C` [Compound 4a], the IC50 in data set [1] and in data set [3] was over 40 µM each time. Regarding `CC1(C)C(=O)CC[C@]2(C)[C@H]3C(=O)C=C4[C@@H]5C[C@@](C)(C(=O)O)CC[C@]5(C)CC[C@@]4(C)[C@]3(C)[C@@H](O)C[C@@H]12` [Compound 5a], the 50% inhibitory concentration (IC50) in data set [1] and in data set [3] was over 40 µM in each case.

On to `CC1(C)C(=O)CC[C@]2(C)[C@H]3C(=O)C=C4[C@@H]5C[C@@](C)(C(=O)O)CC[C@]5(C)C[C@H](O)[C@@]4(C)[C@]3(C)[C@@H](O)C[C@@H]12` [Compound 5b], for which the IC50 in data set [1] and in data set [3] was over 40 µM throughout. Take `CC1(C)C(=O)C=C[C@]2(C)[C@H]3C(=O)C=C4[C@@H]5C[C@@](C)(C(=O)O)CC[C@]5(C)CC[C@@]4(C)[C@]3(C)[C@@H](O)C[C@@H]12` [Compound 6a]: the half-maximal inhibitory concentration (IC50) in data set [1] and in data set [3] was over 40 µM each time. With `CC1(C)C(=O)C=C[C@]2(C)[C@H]3C(=O)C=C4[C@@H]5C[C@@](C)(C(=O)O)CC[C@]5(C)C[C@H](O)[C@@]4(C)[C@]3(C)[C@@H](O)C[C@@H]12` [Compound 6b], the 50% inhibitory concentration (IC50) in data set [1] and in data set [3] was over 40 µM each time. Take `CC1(C)OC(=O)CC[C@]2(C)[C@H]3C(=O)C=C4[C@@H]5C[C@@](C)(C(=O)O)CC[C@]5(C)CC[C@@]4(C)[C@]3(C)[C@@H](O)C[C@@H]12` [Compound 7a]: the half-maximal inhibitory concentration (IC50) in data set [1] and in data set [3] was over 40 µM in each case. On to `CC1(C)OC(=O)CC[C@]2(C)[C@H]3C(=O)C=C4[C@@H]5C[C@@](C)(C(=O)O)CC[C@]5(C)C[C@H](O)[C@@]4(C)[C@]3(C)[C@@H](O)C[C@@H]12` [Compound 7b], for which the 50% inhibitory concentration (IC50) in data set [1] and in data set [3] was over 40 µM throughout. For `CC1(C)c2oncc2C[C@]2(C)[C@H]3C(=O)C=C4[C@@H]5C[C@@](C)(C(=O)O)CC[C@]5(C)CC[C@@]4(C)[C@]3(C)[C@@H](O)C[C@@H]12` [Compound 8a], the half-inhibitory concentration (IC50) in data set [1] and in data set [3] was over 40 µM throughout. With `CC1(C)c2oncc2C[C@]2(C)[C@H]3C(=O)C=C4[C@@H]5C[C@@](C)(C(=O)O)CC[C@]5(C)C[C@H](O)[C@@]4(C)[C@]3(C)[C@@H](O)C[C@@H]12` [Compound 8b], the half-inhibitory concentration (IC50) in data set [1] and in data set [3] was over 40 µM in each case. For the molecule `COC(=O)[C@@]1(C)CC[C@]2(C)CCC3(C)C(=CC(=O)[C@@H]4[C@@]5(C)CC[C@H](O)C(C)(C)[C@@H]5C[C@H](O)[C@]43C)[C@@H]2C1` (some centres unmarked) [Compound 9a], the IC50 in data set [1] and in data set [3] was over 40 µM throughout. For the molecule `COC(=O)[C@@]1(C)CC[C@]2(C)C[C@H](O)[C@]3(C)C(=CC(=O)[C@@H]4[C@@]5(C)CC[C@H](O)C(C)(C)[C@@H]5C[C@H](O)[C@]43C)[C@@H]2C1` [Compound 9b], the 50% inhibitory concentration (IC50) in data set [1] and in data set [3] was over 40 µM in each case. For the molecule `C=CCCCCOC(=O)[C@@]1(C)CC[C@]2(C)CC[C@]3(C)C(=CC(=O)[C@@H]4[C@@]5(C)CC[C@H](O)C(C)(C)[C@@H]5C[C@H](O)[C@]43C)[C@@H]2C1` [Compound 10a], the IC50 in data set [1] is over 40 µM. Also, in data set [3], the 50% inhibitory concentration (IC50) turned out to be 39.2 ± 2.34 µM and the “activity against human colon cancer cells compared with the parent compound 1 (glycyrrhetinic acid)” value is given as “more than twice the activity”.

As for `C=CCCCCOC(=O)[C@@]1(C)CC[C@]2(C)C[C@H](O)[C@]3(C)C(=CC(=O)[C@@H]4[C@@]5(C)CC[C@H](O)C(C)(C)[C@@H]5C[C@H](O)[C@]43C)[C@@H]2C1` [Compound 10b], the half-inhibitory concentration (IC50) in data set [1] is 38.6 ± 0.54 µM. Also, the “activity against human liver cancer cells compared with the parent compound 1 (glycyrrhetinic acid)” value in data set [1] (relative to parent compound 1) is listed as “more than twice the activity”. In data set [3], the IC50 is 32 ± 3.36 µM and the “activity against human colon cancer cells compared with the parent compound 1 (glycyrrhetinic acid)” value is “more than twice the activity”. On to `CC(=O)O[C@H]1CC[C@]2(C)[C@H]3C(=O)C=C4[C@@H]5C[C@@](C)(C(=O)O)CC[C@]5(C)CC[C@@]4(C)[C@]3(C)CC[C@H]2C1(C)C` [Substrate 2, 3-acetyl-glycyrrhetinic acid], for which the “yield of Substrate catalyzed” value in data set [2] was 92%. Same read-out and setting: under `CCC(=O)O[C@H]1CC[C@]2(C)[C@H]3C(=O)C=C4[C@@H]5C[C@@](C)(C(=O)O)CC[C@]5(C)CC[C@@]4(C)[C@]3(C)CC[C@H]2C1(C)C` [Substrate 3, 3-propionyl-glycyrrhetinic acid] stands 61%; under `CCCC(=O)O[C@H]1CC[C@]2(C)[C@H]3C(=O)C=C4[C@@H]5C[C@@](C)(C(=O)O)CC[C@]5(C)CC[C@@]4(C)[C@]3(C)CC[C@H]2C1(C)C` [Substrate 4, 3-butyryl-glycyrrhetinic acid], 23%. Take `CC1(C)C(=O)CC[C@]2(C)[C@H]3C(=O)C=C4[C@@H]5C[C@@](C)(C(=O)O)CC[C@]5(C)CC[C@@]4(C)[C@]3(C)CC[C@@H]12` [Substrate 5, 3-oxo-glycyrrhetinic acid]: the “ratio of hydroxylated products a:b” value in data set [4] is 76:24. Moreover, the “yield of Substrate catalyzed” value in data set [4] (pH 7) turned out to be 87%. As to `CC1(C)C(=O)C=C[C@]2(C)[C@H]3C(=O)C=C4[C@@H]5C[C@@](C)(C(=O)O)CC[C@]5(C)CC[C@@]4(C)[C@]3(C)CC[C@@H]12` [Substrate 6, 3-oxo-1-ene-glycyrrhetinic acid], the “yield of Substrate catalyzed” value in data set [2] was 81%.

As for `CC1(C)OC(=O)CC[C@]2(C)[C@H]3C(=O)C=C4[C@@H]5C[C@@](C)(C(=O)O)CC[C@]5(C)CC[C@@]4(C)[C@]3(C)CC[C@@H]12` [Substrate 7], the “yield of Substrate catalyzed” value in data set [2] is reported as 87%. With `CC1(C)c2oncc2C[C@]2(C)[C@H]3C(=O)C=C4[C@H]5C[C@@](C)(C(=O)O)CC[C@]5(C)CC[C@@]4(C)[C@]3(C)CC[C@@H]12` [Substrate 8], the “yield of Substrate catalyzed” value in data set [2] worked out at 97%.

Source of the values: patent US20260337583A1, “CYTOCHROME P450 ENZYME, NUCLEIC ACID MOLECULE, AND GLYCYRRHETINIC ACID DERIVATIVE AND USE THEREOF” (CHINA PHARMACEUTICAL UNIVERSITY, priority 2023, published 2026).
